Tests used:
Assay type in all cases: cell-based
leukaemia cell = assay: Activity against leukaemia cells; conditions: leukaemia cell growth; Tables 13A and 13B
Experimental: (§1) Antitumor activity of the compounds and doxorubicin as a positive control was assessed by using the CellTiter-Blue Cell Viability Assay (Promega, #G8082) or CellTiter-Glow® Luminescent Cell Viability assay (Promega #G7572) according to the manufacturer's instructions. The compounds were tested at 5 or 6 concentrations in half-log increments (highest concentration 30 μM or 100 μM) in duplicate or triplicate well conditions.
(§2) Tumor cells were grown at 37° C. in a humidified atmosphere with 5% CO2 in RPMI 1640 or DMEM medium, supplemented with 10% (v/v) fetal calf serum and 50 μg/ml gentamicin for up to 20 passages, and were passaged once or twice weekly. Cells were harvested using TrypLE or PBS buffer containing 1 mM EDTA, and the percentage of viable cells is determined using a CASY Model TI cell counter (OMNI Life Science). Cells were harvested from exponential phase cultures, counted and plated in 96 well flat-bottom microtiter plates at a cell density depending on the cell line's growth rate (4,000-20,000 cells/well depending on the cell line's growth rate, up to 60,000 for hematological cancer cell lines) in RPMI 1640 or DMEM medium supplemented with 10% (v/v) fetal calf serum and 50 μg/ml gentamicin (140 μl/well). Cultures were incubated at 37° C. and 5% CO2 in a humidified atmosphere. After 24 h, 10 μl of test compounds or control medium were added, and left on the cells for another 72 h. Compounds were serially diluted in DMSO, transferred in cell culture medium, and added to the assay plates. The DMSO concentration was kept constant at <0.3% v/v across the assay plate. Viability of cells was quantified by the CellTiter-Blue® cell viability assay (Promega G8081) or CellTiter-Glow® Luminescent Cell Viability assay (Promega #G7572). Fluorescence (FU) was measured by using the EnSpire® multimode plate reader (Perkin Elmer) (excitation X=570 nm, emission λ=600 nm). Luminescence was measured with a microplate luminometer (Promega or PerkinElmer).
(§3) Sigmoidal concentration-response curves were fitted to the data points (test-versus-control, T/C values) obtained for each tumor model using 4 parameter non-linear curve fit (Charles River DRS Datawarehouse Software) or with GraphPad prism 5.02 software. IC50 values are reported as absolute IC50 values, being the concentration of test compound at the intersection of the concentration-response curves with T/C=50% Cell lines tested are presented in Table 1.

HL-60 = assay: Cell viability assay (CellTiter-Blue/CellTiter-Glow); conditions: Homo sapiens; leukaemia cell line HL-60; absolute IC50; 72 h
Experimental: as §1, §2, §3

22Rv1 = assay: as above; conditions: Homo sapiens; prostate carcinoma cell line 22Rv1; absolute IC50; 72 h
Experimental: as §1, §2, §3

PC-3 = assay: as above; conditions: Homo sapiens; prostate carcinoma cell line PC-3; absolute IC50; 72 h
Experimental: as §1, §2, §3

parental H69 cells = assay: as above; conditions: Homo sapiens, NCI-H69; SCLC parental H69 cells
Experimental: as §1, §2, §3

MCF-7 = assay: as above; conditions: Homo sapiens, MCF7; breast carcinoma cell line MCF-7; absolute IC50; 72 h
Experimental: as §1, §2, §3

HCT-116 = assay: as above; conditions: Homo sapiens; colon carcinoma cell line HCT-116; absolute IC50; 72 h
Experimental: as §1, §2, §3

LNCaP = assay: as above; conditions: Homo sapiens; prostate carcinoma cell line LNCaP; absolute IC50; 72 h
Experimental: as §1, §2, §3

LoVo = assay: as above; conditions: Homo sapiens; colon carcinoma cell line LoVo; absolute IC50; 72 h
Experimental: as §1, §2, §3

MDA-MB-468 = assay: as above; conditions: Homo sapiens; breast carcinoma cell line MDA-MB-468; absolute IC50; 72 h
Experimental: as §1, §2, §3

prostate cancer cell = assay: Activity against prostate cancer cells; conditions: prostate cancer cell growth; text summary of Table 21
Experimental: as §1, §2, §3

breast cancer cell = assay: Activity against breast cancer cells; conditions: breast cancer cell growth; Tables 5A and B
Experimental: as §1, §2, §3

colon cancer cell = assay: Activity against colon cancer cells; conditions: colon cancer cell growth; summary of Tables 7A-7D
Experimental: as §1, §2, §3

For `O=c1cc(-c2ccc(CCC[P+](c3ccccc3)(c3ccccc3)c3ccccc3)cc2)oc2c(O)c(O)ccc12` [SND176, (3-(4-(7,8-Dihydroxy-4-oxo-4H-chromen-2-yl)phenyl)propyl)triphenylphosphonium bromide], which IC50 (leukaemia cell) is on record?
Its IC50 is < 20 µM.

And the IC50 (HL-60)?
The IC50 was 1430 nM.

And the IC50 (22Rv1)?
The IC50 was 8.18 µM.

What about the IC50 (PC-3) of the same compound?
The IC50 was 7.3 µM.

And the IC50 (parental H69 cells)?
Its IC50 is 7 µM.

And the IC50 (MCF-7)?
The IC50 was 18.3 µM.

And the IC50 (HCT-116)?
Its IC50 is 8.68 µM.

And the IC50 (LNCaP)?
Its IC50 is 3.66 µM.

And the IC50 (LoVo)?
The IC50 was 8.6 µM.

What about the IC50 (MDA-MB-468) of the same compound?
Its IC50 is 1420 nM.

What about the IC50 (prostate cancer cell) of the same compound?
Its IC50 is < 10 µM.

And the IC50 (breast cancer cell)?
The IC50 was < 20 µM.

What about the IC50 (colon cancer cell) of the same compound?
Its IC50 is < 20 µM.

Source: patent US20240209011A1, “HETEROAROMATIC PHOSPHONIUM SALTS FOR TREATING CANCER” (FLORATEK PHARMA S.A., priority 2021, published 2024)
